# Measured values reported in patent US9796733B2, “Imidazo-pyrazine derivatives useful as soluble guanylate cyclase activators” (Merck Sharp & Dohme Corp., priority 2014, dated 2017).
# Key:
# [1] = target: T1, sGC α1/β1 heterodimer (Homo sapiens, UniProt Q02108+Q02153); experiment: Cell-based sGC functional assay (CASA assay): cGMP generation in CHO-K1/sGC cells, HTRF detection; conditions: for Emax: CHO-K1, percent activation relative to standard Compound A in CHO-K1/sGC cells, read-out: % Act.; for EC50: inflection point (IP) of cGMP generation in CHO-K1/sGC cells, 4P fit, activity expressed as percentage of Compound A
# T1 construct: expressed in transfected cells; host or cells: CHO-K1 (clone #7, CHO-K1/sGC)
# T1 sequence (Q02108 1-690): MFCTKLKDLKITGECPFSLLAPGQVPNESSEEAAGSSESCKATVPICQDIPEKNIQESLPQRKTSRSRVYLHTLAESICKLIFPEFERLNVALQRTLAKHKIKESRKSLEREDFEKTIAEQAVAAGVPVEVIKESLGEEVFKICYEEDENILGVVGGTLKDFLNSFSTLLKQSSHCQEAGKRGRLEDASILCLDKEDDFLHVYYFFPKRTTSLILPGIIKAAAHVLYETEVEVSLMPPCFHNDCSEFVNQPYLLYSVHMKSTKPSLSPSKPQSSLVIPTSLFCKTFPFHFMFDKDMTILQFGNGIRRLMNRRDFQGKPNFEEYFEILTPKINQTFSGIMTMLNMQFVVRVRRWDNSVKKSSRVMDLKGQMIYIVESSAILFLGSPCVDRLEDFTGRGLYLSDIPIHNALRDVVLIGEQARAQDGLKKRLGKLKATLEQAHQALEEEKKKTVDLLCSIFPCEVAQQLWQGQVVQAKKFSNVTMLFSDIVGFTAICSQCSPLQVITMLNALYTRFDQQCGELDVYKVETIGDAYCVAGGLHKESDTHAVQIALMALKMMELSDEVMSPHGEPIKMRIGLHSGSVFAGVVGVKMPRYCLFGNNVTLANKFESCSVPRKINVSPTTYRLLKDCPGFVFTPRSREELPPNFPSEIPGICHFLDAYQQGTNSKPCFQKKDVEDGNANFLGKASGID
# T1 sequence (Q02153 1-619): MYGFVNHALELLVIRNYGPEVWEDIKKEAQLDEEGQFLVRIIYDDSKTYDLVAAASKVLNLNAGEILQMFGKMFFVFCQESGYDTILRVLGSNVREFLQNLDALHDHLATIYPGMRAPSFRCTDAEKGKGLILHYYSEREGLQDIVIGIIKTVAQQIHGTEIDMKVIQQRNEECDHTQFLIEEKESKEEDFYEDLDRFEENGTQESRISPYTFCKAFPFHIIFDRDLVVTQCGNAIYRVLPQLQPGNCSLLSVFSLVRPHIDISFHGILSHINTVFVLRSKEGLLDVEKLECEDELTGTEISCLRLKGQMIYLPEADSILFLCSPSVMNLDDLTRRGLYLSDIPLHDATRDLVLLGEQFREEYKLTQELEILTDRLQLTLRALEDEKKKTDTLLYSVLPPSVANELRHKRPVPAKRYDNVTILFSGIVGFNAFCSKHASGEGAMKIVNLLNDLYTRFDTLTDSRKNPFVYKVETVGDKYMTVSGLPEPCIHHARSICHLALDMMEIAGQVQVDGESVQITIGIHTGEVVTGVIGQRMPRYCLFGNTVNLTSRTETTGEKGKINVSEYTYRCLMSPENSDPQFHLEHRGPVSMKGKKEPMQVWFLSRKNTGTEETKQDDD
# Outline: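 Stable CHO-K1/sGC cells in EBSS buffer with 5 mM MgCl2, 0.05% BSA and 0.5 mM IBMX were incubated with compound (2.5% DMSO final) ±1 μM DETA-NO for 1 hr at 37° C. cGMP was measured by HTRF. Activation is expressed as % of reference HDA Compound A maximum, with IP and max fold induction from a 4P fit.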
# [2] = test system: Spontaneously hypertensive rats (SHR); experiment: Acute efficacy in spontaneously hypertensive rats (SHR): telemetry blood pressure lowering after a single oral dose; type: in vivo, rat
# From the text: Acute Efficacy in Spontaneously Hypertensive Rats (SHR)
# Spontaneously hypertensive rats (SHR, male, Charles River) were implanted with DSI TA11PA-C40 telemetry device (Data Sciences, Inc., St. Paul, Minn.) under isoflurane or ketamine/metomidine anesthesia. The telemetry unit catheter was inserted into the descending aorta via the femoral artery and the telemetry device was implanted subcutaneously in the left flank area. Animals were allowed to recover from surgery for 14 days before the start of any studies. Blood pressure, heart rate, and activity signals from conscious, freely moving rats were recorded continuously for 30 seconds every 10 minutes. On the day prior to administration of compound, a single oral dose of vehicle (10% transcutol/20% Cremophor/70% water) was administered to all animals to establish baseline control data. The blood pressure lowering efficacy of compound (PO) or vehicle was evaluated following a single oral gavage. Data were collected as hourly averages, and changes in blood pressure were calculated by subtracting control baseline data on an hourly basis. Animals were maintained on normal diet with a 12 hour light-dark cycle.
# Maximum peak decreases of systolic blood pressure (SBP) in SHR at a particular P.O. dose (mpk milligrams per kilogram) for the following representative compounds are provided. Category A=SBP in SHRs<20 mmHg; Category B=SBP in SHRs 20-40 mmHg; Category C=SBP in SHRs>40 mmHg
Structure (SMILES),Emax [1],EC50 [1],"Maximum peak decrease of systolic blood pressure (SBP) in SHR, Cat. ([2]; P.O. 0.3 mpk)","Maximum peak decrease of systolic blood pressure (SBP) in SHR, Cat. ([2]; P.O. 1.0 mpk)","Maximum peak decrease of systolic blood pressure (SBP) in SHR, Cat. ([2]; P.O. 3.0 mpk)"
"CC1(c2ccc(Cl)c(F)c2)C(=O)Nc2nc(-c3cn4ccnc4c(CCC(F)(F)F)n3)nc(N)c21 (centres unmarked) [Example 178B, 4-amino-5-(4-chloro-3-fluorophenyl)-5-methyl-2-(8-(3,3,3-trifluoropropyl)imidazo[1,2-a]pyrazin-6-yl)-5H-pyrrolo[2,3-d]pyrimidin-6(7H)-one]",106%,17 nM,B (Category B=SBP in SHRs 20-40 mmHg),,
"CC1(c2ccc(Cl)cc2F)C(=O)Nc2nc(-c3cn4ccnc4cn3)nc(N)c21 (centres unmarked) [Example 136A, 4-amino-5-(4-chloro-2-fluorophenyl)-2-(imidazo[1,2-a]pyrazin-6-yl)-5-methyl-5H-pyrrolo[2,3-d]pyrimidin-6(7H)-one]",129%,77 nM,,B (Category B=SBP in SHRs 20-40 mmHg),
"CC(C)Cc1nc(-c2nc(N)c3c(n2)NC(=O)C3(c2ccc(Cl)c(F)c2)C2CC2)cn2ccnc12 (centres unmarked) [Example 315A, 4-amino-5-(4-chloro-3-fluorophenyl)-5-cyclopropyl-2-(8-isobutylimidazo[1,2-a]pyrazin-6-yl)-5H-pyrrolo[2,3-d]pyrimidin-6(7H)-one]",113%,119 nM,,,B (Category B=SBP in SHRs 20-40 mmHg)
"CC1(c2ccc(C3CC3)nc2)C(=O)Nc2nc(-c3cn4ccnc4c(CCC(F)(F)C(F)(F)F)n3)nc(N)c21 (centres unmarked) [Example 240B, 4-amino-5-(6-cyclopropylpyridin-3-yl)-5-methyl-2-(8-(3,3,4,4,4-pentafluorobutyl)imidazo [1,2-a]pyrazin-6-yl)-5H-pyrrolo[2,3-d]pyrimidin-6(7H)-one]",105%,53 nM,,A (Category A=SBP in SHRs<20 mmHg),
"CCCCc1nc(-c2nc(N)c3c(n2)NC(=O)C3(c2ncc(Cl)cn2)C2CC2)cn2ccnc12 (centres unmarked) [Example 372A, 4-amino-2-(8-butylimidazo[1,2-a]pyrazin-6-yl)-5-(5-chloropyrimidin-2-yl)-5-cyclopropyl-5H-pyrrolo[2,3-d]pyrimidin-6(7H)-one]",187%,239 nM,,C (Category C=SBP in SHRs>40 mmHg),
"CC(C)c1ccc(C2(C)C(=O)Nc3nc(-c4cn5ccnc5c(CCC(F)(F)C(F)(F)F)n4)nc(N)c32)nc1 (centres unmarked) [Example 225A, 4-amino-5-(5-isopropylpyridin-2-yl)-5-methyl-2-(8-(3,3,4,4,4-pentafluorobutyl)imidazo [1,2-a]pyrazin-6-yl)-5H-pyrrolo[2,3-d]pyrimidin-6(7H)-one]",82%,166 nM,,A (Category A=SBP in SHRs<20 mmHg),
"Cc1nc2c(CCC(F)(F)C(F)(F)F)nc(-c3nc(N)c4c(n3)NC(=O)C4(C)c3ccc(F)cc3)cn2c1C (centres unmarked) [Example 177A, 4-amino-2-(2,3-dimethyl-8-(3,3,4,4,4-pentafluorobutyl)imidazo [1,2-a]pyrazin-6-yl)-5-(4-fluorophenyl)-5-methyl-5H-pyrrolo[2,3-d]pyrimidin-6(7H)-one]",107%,129 nM,,,
"Nc1nc(-c2cn3cc(C(F)(F)F)nc3c(Cc3ccccc3F)n2)nc2c1C(C(=O)NC1CC1)(C1CC1)C(=O)N2 (single isomer, unassigned) [Example 45B, 4-amino-N,5-dicyclopropyl-2-(8-(2-fluorobenzyl)-2-(trifluoromethyl)imidazo[1,2-a]pyrazin-6-yl)-6-oxo-6,7-dihydro-5H-pyrrolo[2,3-d]pyrimidine-5-carboxamide]",75%,217 nM,,,
"Cc1nc(C2(C3CC3)C(=O)Nc3nc(-c4cn5ccnc5c(CCCC(F)(F)F)n4)nc(N)c32)ccc1F (single isomer, unassigned) [Example 362B, 4-amino-5-cyclopropyl-5-(5-fluoro-6-methylpyridin-2-yl)-2-(8-(4,4,4-trifluorobutyl)imidazo[1,2-a]pyrazin-6-yl)-5H-pyrrolo[2,3-d]pyrimidin-6(7H)-one]",140%,384 nM,,,
"Cc1nc(C2(C3CC3)C(=O)Nc3nc(-c4cn5ccnc5c(CCCC(F)(F)F)n4)nc(N)c32)ccc1Cl (single isomer, unassigned) [Example 377B]",90%,86 nM,,,
"Nc1nc(-c2cn3cc(C(F)(F)F)nc3c(Cc3ccccc3)n2)nc2c1C(C(=O)NC1CC1)(C1CC1)C(=O)N2 (centres unmarked) [Example 51A, 4-amino-2-(8-benzyl-2-(trifluoromethyl)imidazo[1,2-a]pyrazin-6-yl)-N,5-dicyclopropyl-6-oxo-6,7-dihydro-5H-pyrrolo[2,3-d]pyrimidine-5-carboxamide]",93%,890 nM,,,
"CC1(C)C(=O)Nc2nc(-c3cn4ccnc4c(Cc4cccc(C#N)c4)n3)nc(N)c21 [Example 272, 3-((6-(4-Amino-5,5-dimethyl-6-oxo-6,7-dihydro-5H-pyrrolo[2,3-d]pyrimidin-2-yl)imidazo[1,2-a]pyrazin-8-yl)methyl)benzonitrile]",114%,367 nM,,,
"CC1(C(=O)NC2CC2)C(=O)Nc2nc(-c3cn4cc(C(F)(F)F)nc4c(Cc4ccc(F)c(F)c4)n3)nc(N)c21 (centres unmarked) [Example 52A, 4-amino-N-cyclopropyl-2-(8-(3,4-difluorobenzyl)-2-(trifluoromethyl)imidazo[1,2-a]pyrazin-6-yl)-5-methyl-6-oxo-6,7-dihydro-5H-pyrrolo[2,3-d]pyrimidine-5-carboxamide]",93%,950 nM,,,
"CC1(c2ccc(F)cc2)C(=O)Nc2nc(-c3cn4ccnc4c(C4CCC4)n3)nc(N)c21 (centres unmarked) [Example 21A, 4-amino-2-(8-cyclobutylimidazo[1,2-a]pyrazin-6-yl)-5-(4-fluorophenyl)-5-methyl-5H-pyrrolo[2,3-d]pyrimidin-6(7H)-one]",95%,197 nM,,,
"CC1(c2ccc(F)cn2)C(=O)Nc2nc(-c3cn4c(N)cnc4c(CCC(F)(F)C(F)(F)F)n3)nc(N)c21 (centres unmarked) [Example 268B, 4-Amino-2-(3-amino-8-(3,3,4,4,4-pentafluorobutyl)imidazo[1,2-a]pyrazin-6-yl)-5-(5-fluoropyridin-2-yl)-5-methyl-5H-pyrrolo[2,3-d]pyrimidin-6(7H)-one]",79%,338 nM,,,
"CC1(c2ccc(F)cc2)C(=O)Nc2nc(-c3cn4ccnc4c(CCc4cccc(F)c4)n3)nc(N)c21 (centres unmarked) [Example 4A, 4-amino-2-(8-(3-fluorophenethyl)imidazo[1,2-a]pyrazin-6-yl)-5-(4-fluorophenyl)-5-methyl-5H-pyrrolo[2,3-d]pyrimidin-6(7H)-one]",123%,32 nM,,,
